Laboratory results: article PMC4999848 (Toxins, 2016)
Where “and” joins values, the source holds several entries; their conditions need not be identical. Identical values can stand only once.

Key:
pancreatic lipase = biological target: T1, pancreatic lipase (Sus scrofa, UniProt P00591); assay: Deacetylation of 3/15ADON by pancreatic lipase; type: in vitro ADME, porcine; conditions: lipase 0.75 mg/mL, PBS pH 7.4, 37 °C, substrate 100 μM
T1 construct: purchased Sigma-Aldrich
Protocol: Stock solutions of DON, 3ADON and 15ADON at 2 mg/mL were prepared in absolute ethanol and stored at −20 °C. For deacetylation assay, 3- or 15ADON were incubated with cells, explants, bacteria or digestive enzymes after being diluted in PBS^++ at a final concentration of 100 μM. PBS^++ solution containing only ethanol (at 1.5% final concentration) or DON (at 100 μM) were used in parallel as negative and positive control, respectively. For cells and explants, deacetylation assay take place in 6-well plates, wells being filled with 2 mL of PBS^++ containing either ethanol, DON, 3- or 15ADON. For fecal bacteria and digestive enzyme assay, deacetylation assay was conducted in 2 mL Eppendorf tubes filled with 1.5 mL of PBS^++ containing either ethanol, DON, 3- or 15ADON. In vitro intestinal digestion by luminal enzymes was performed using porcine enzymes from Sigma-Aldrich and physiological conditions. […] In all cases, aliquots of the reaction solution were collected immediately (i.e., “time zero” sample) or after the indicated time period at 37 °C and analyzed by HPLC. […]
Deacetylation was monitoring both in term of disappearance of 3- or 15ADON and formation of DON. […] Quantification was based on calibration with the corresponding standard using Millinium Software (Waters, Saint Quentin Falavier, France).

human fecal bacteria = assay: Deacetylation of 3/15ADON by human fecal bacteria; type: in vitro ADME; conditions: for Disappearance of 3/15ADON, specific activity: fecal bacteria, anaerobic, 37 °C, substrate 100 μM; for % of deacetylation: human fecal bacteria; for Contribution to total deacetylation activity: Bacteria: percentage of sum of specific activities (Figure 8)
Protocol: The whole procedure involving fecal bacteria (including the use of fecal bacteria for the deacetylation assay) was performed in an anaerobic cabinet (Coy Laboratory Products, Grass Lake, MI, USA). Human fecal bacteria were isolated from three volunteers (men) working in the department, 40–50 years of age. Stools were collected fresh in a sterile container and were immediately introduced into the anaerobic cabinet. Feces samples were taken by pushing a cut-off disposal 1 mL pipette tip into the inner part of the stools. Samples were then mechanically suspended in 9 mL of degassed PBS^++. Homogenates were allowed to decant for ten minutes to eliminate insoluble matter, and supernatants (1 mL aliquots) were transferred to sterile Eppendorf tubes and used for deacetylation assay.
(§1) Stock solutions of DON, 3ADON and 15ADON at 2 mg/mL were prepared in absolute ethanol and stored at −20 °C. For deacetylation assay, 3- or 15ADON were incubated with cells, explants, bacteria or digestive enzymes after being diluted in PBS^++ at a final concentration of 100 μM. PBS^++ solution containing only ethanol (at 1.5% final concentration) or DON (at 100 μM) were used in parallel as negative and positive control, respectively. For cells and explants, deacetylation assay take place in 6-well plates, wells being filled with 2 mL of PBS^++ containing either ethanol, DON, 3- or 15ADON. For fecal bacteria and digestive enzyme assay, deacetylation assay was conducted in 2 mL Eppendorf tubes filled with 1.5 mL of PBS^++ containing either ethanol, DON, 3- or 15ADON. In vitro intestinal digestion by luminal enzymes was performed using porcine enzymes from Sigma-Aldrich and physiological conditions. Briefly, 3- or 15ADON were incubated with pepsin (at 1.6 mg/mL corresponding to 900 U/mL), trypsin (at 0.35 mg/mL corresponding to 6000 U/mL), pancreatic lipase (at 0.75 mg/mL corresponding to 18 U/mL) or pancreatin (at 1.23 mg/mL, lipase activity >10 U/mL, protease activity >100 U/mL, amylase activity >100 U/mL). Except for pepsin for which the digestion was conducted in HCl solution at 10 mM (pH 2.3), in vitro digestion was performed in PBS^++ (pH 7.4). Finally, deacetylation assay was also performed with commercial pooled S9 fractions from human liver, small intestine and kidneys as well as with pure recombinant human CES1 and CES2. S9 fractions and CES1/2 were used at 0.1 mg/mL and 5 μg/mL (corresponding to CES activity >20 U/mL), respectively. In all cases, aliquots of the reaction solution were collected immediately (i.e., “time zero” sample) or after the indicated time period at 37 °C and analyzed by HPLC. […] In all cases, the experiments were conducted in triplicate (n = 3).
(§2) Deacetylation was monitoring both in term of disappearance of 3- or 15ADON and formation of DON. Measurement of DON, 3ADON and 15ADON concentrations was performed by reversed-phase HPLC using Waters Alliance System equipped with a Waters 2690 XE separation module and a Waters 996 photodiode array detector (Waters, Saint Quentin Falavier, France). The separation was achieved by mean of a LiChroCart column (125 mm × 4 mm) packed with 5 μm RP-18 Purospher gel (Merck, Darmstadt, Germany) and equipped with a LiChroCart precolumn (4 mm × 4 mm) packed with the same material (Merck). The precolumn and column were placed in room temperature. The elution procedure was carried out at 0.7 mL·min^−1 by a methanol–water solvent, using the following conditions: 40% methanol during 2 min followed by an increase in methanol to 50% at 2.1 min.

small intestinal explant = assay: Deacetylation of 3/15ADON by human small intestinal explants; type: in vitro ADME; conditions: for Contribution to total deacetylation activity: Small intestine: percentage of sum of specific activities (Figure 8); for Disappearance of 3/15ADON, specific activity: small intestinal explant, 37 °C, substrate 100 μM; for % of deacetylation: small intestinal explants, 6 h incubation, 100 μM
Excerpt: (§3) Human tissue samples were obtained from patients undergoing surgery at the Hospital Nord of Marseille, unit of general and gastrointestinal surgery according to a collaborative “clinical transfer” project. The procedures were approved by the French ethic committee (CODECOH n° DC-2011-1319). Patients were from both genders (six men, three women), 31–74 years of age, all of European origin. All patients agree to use their tissues for research purposes. Samples were taken from macroscopically unaffected area as identified by the surgeon for intestinal samples or the pathologist for liver resections. Diagnoses leading to surgery were carcinoma for intestine or liver. After resection, the specimens were placed in ice-cold non-sterile Krebs solution implemented and transferred to the school of medicine on the same campus within 5 min, composition of the Krebs solution being previously described. The tissues were rinsed several times and maintained in oxygenated Krebs during 1 h for recovery before final dissection. Intestinal and hepatic resections were extensively washed and maintained in ice-cold culture media containing 1% streptomycin/penicillin solution and 50 μg/mL gentamycin. Tissues were cleaned from vascular vessels and conjunctive tissue using forceps under binocular microscope. In case of intestinal resection, muscularis and plexus were removed and only epithelial layer was kept. Intestinal and hepatic explants (wet weight of 20–30 mg) were then isolated from the cleaned resections using surgical punch (diameter of […]). […] Finally, the explants were washed 3 times with PBS^++ and transferred into 6-well plates before being used for deacetylation assay.
as §1

liver explant = assay: Deacetylation of 3/15ADON by human liver explants; type: in vitro ADME; conditions: for % of deacetylation: hepatic explants, 6 h incubation, 100 μM; for Disappearance of 3/15ADON, specific activity: liver explant, 37 °C, substrate 100 μM; for Contribution to total deacetylation activity: Liver: percentage of sum of specific activities (Figure 8)
Excerpt: as §3, §1

[1] = Deacetylation of 3/15ADON by kidney S9 fraction; type: in vitro ADME, human; conditions: for Disappearance of 3/15ADON, specific activity: S9 kidney 0.1 mg/mL, 37 °C, substrate 100 μM; for Activity of renal S9 fraction on 3/15ADON: in words
Protocol: as §1
as §2, with “[…] Quantification” for “The elution procedure”, “based on calibration with the corresponding standard” for “carried out at 0.7 mL·min^−1 by a methanol–water solvent,”, “Millinium Software (Waters, Saint Quentin Falavier, France).” for “the following conditions: 40% methanol during 2 min followed by an increase in methanol to 50% at 2.1 min.”

T1 sequence (P00591 whole entry): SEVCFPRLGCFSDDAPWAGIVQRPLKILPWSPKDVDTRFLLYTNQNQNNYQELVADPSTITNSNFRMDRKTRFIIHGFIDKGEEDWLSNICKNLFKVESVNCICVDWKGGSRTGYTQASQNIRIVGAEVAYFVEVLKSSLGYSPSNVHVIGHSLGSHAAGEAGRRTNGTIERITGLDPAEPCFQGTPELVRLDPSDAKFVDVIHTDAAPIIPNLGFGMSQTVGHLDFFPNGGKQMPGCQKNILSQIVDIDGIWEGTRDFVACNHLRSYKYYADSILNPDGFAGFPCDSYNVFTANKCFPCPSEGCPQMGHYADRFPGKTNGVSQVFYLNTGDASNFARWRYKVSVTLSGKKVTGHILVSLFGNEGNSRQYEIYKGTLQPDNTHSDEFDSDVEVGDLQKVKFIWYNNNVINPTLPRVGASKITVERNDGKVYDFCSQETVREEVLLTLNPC

Structure (SMILES) | Disappearance of 3/15ADON, specific activity (pancreatic lipase) [pmol/min/mg] | Disappearance of 3/15ADON, specific activity (human fecal bacteria) [pmol/min/mg] | % of deacetylation (human fecal bacteria; 6 h incubation, 100 μM) | % of deacetylation (human fecal bacteria; 48 h incubation) | Contribution to total deacetylation activity: Bacteria (human fecal bacteria) [%] | Contribution to total deacetylation activity: Small intestine (small intestinal explant) [%] | Disappearance of 3/15ADON, specific activity (small intestinal explant) | % of deacetylation (small intestinal explant) | % of deacetylation (liver explant) | Disappearance of 3/15ADON, specific activity (liver explant) | Contribution to total deacetylation activity: Liver (liver explant) [%] | Disappearance of 3/15ADON, specific activity [1] | Activity of renal S9 fraction on 3/15ADON [1]
CC(=O)OC[C@]12[C@H](O)C(=O)C(C)=C[C@H]1O[C@@H]1[C@H](O)C[C@@]2(C)[C@]12CO2 [15ADON, 15-acetyldeoxynivalenol] | 42 ± 18 | 5.8 ± 1.3 | no activity | 14.9% ± 3.2% | 0.9 | 13 | 85 pmol/min/mg and 85 ± 65 pmol/min/mg | 17.2% ± 13.4% | 24.6% ± 2.8% | 330 pmol/min/mg and 330 ± 34 pmol/min/mg | 52 | 16 pmol/min/mg and 16 ± 5.8 pmol/min/mg | minor activity, if any
CC(=O)O[C@@H]1C[C@]2(C)[C@@]3(CO)[C@H](O)C(=O)C(C)=C[C@H]3O[C@H]1[C@@]21CO1 [3ADON, 3-acetyldeoxynivalenol] | 48 ± 21 | 34 ± 0.9 | 22.6% ± 15.9% | 82.1% ± 21.9% | 2.6 | 26 | 338 pmol/min/mg and 338 ± 69 pmol/min/mg | 67.3% ± 13.8% | 54.6% ± 15.4% | 714 pmol/min/mg and 714 ± 198 pmol/min/mg | 56 | 33 pmol/min/mg and 33 ± 8.3 pmol/min/mg | minor activity, if any
